Measurements as given in US10329476B2, “Non-regulated synthetic acid compositions for use as alternatives to conventional acids in the oil and gas industry” (FLUID ENERGY GROUP LTD., priority 2015, dated 2019).

Test system: human skin
Assay: Dermal exposure test
Assay type: in vivo
Excerpt: The objective of this study was to evaluate the dermal irritancy and corrosiveness of the composition of Example 2, following a single application to human skin. To assess the safety upon spillage on human skin, a few drops of the synthetic acid according to a preferred embodiment of the present invention and a control composition (MSA—70%) were applied to the skin on the back of the hand of a test individual. The hands were not covered and remained exposed to the compositions for a period of up to one hour. The exposed skin was subsequently washed with soap and visual assessment of the exposed area was done 24 hours after the start of the exposure.

Dermal exposure, skin observation (24 hrs from exposure, after washing with soap): scab formation | Dermal exposure, skin observation (back of hand, 0 hrs from exposure): immediate burning | Dermal exposure, skin observation (back of hand, ½ hrs from exposure): small blisters
Compound: CS(=O)(=O)O [MSA (70%), Methanesulfonic acid]
Dermal exposure, skin observation (back of hand, 1 hrs from exposure): red skin irritation with large blisters
